Test [1] relates to Haemaphysalis longicornis. As to the kind of experiment: Tickcidal effect against Haemaphysalis longicornis, dry film in glass vial (Test Example 5). It is filed as in vivo. The following applies: for pest or weed control at 1.5 ppm: other agent 1.5 ppm alone (16-keto aspergillimide 0 ppm); for pest or weed control at 3 ppm: other agent 3 ppm alone (16-keto aspergillimide 0 ppm); for pest or weed control at 30 ppm: other agent 30 ppm alone (16-keto aspergillimide 0 ppm); for Death rate (%): Table 10; for Theoretical value (%) by Colby's formula: Table 12. Here is the method: Acetone solutions (30 μl) adjusted to predetermined concentrations were placed in 4 mL-volume glass vials. The vials were placed on a shaker, and a dry film of the compound was prepared on the inner wall of the vials. The vials were dried for 24 hr or more. Larvae (10 or more heads) were released in the vials, and the vials were lidded. The vials were then left to stand in a humidistat chamber (25° C., humidity 85%, fully darkened conditions). […] The test was duplicated.
(§1) Colby's formula: Theoretical value (%)=100−(A×B)/100

Test [2] relates to Laodelphax striatellus. As to the kind of experiment: Root dipping application test, Laodelphax striatellus (Reference Test Example 1). Particulars: 0.5 μg/seedling, wheat seedlings, 3 days after release. The class given is in vivo. The text has this: A test solution adjusted to a predetermined concentration (10% aqueous acetone solution) was applied to the root of wheat seedlings in water culture. […] The test was duplicated.
As is apparent from Table 15, the systemic insecticidal activity of 16-keto aspergillimide was much higher than that of a control compound, Asperparaline A.
The 16-keto aspergillimide and Asperparaline A used in this test were obtained according to methods described in The Journal of Antibiotics, 1997, 50(10), 840-846. This is true of the following test examples.

Test [3] deals with Laodelphax striatellus. As to the kind of experiment: Foliage application test for Laodelphax striatellus (Test Example 2). The class given is in vivo. Particulars: other insecticide 0.313 ppm alone (16-keto aspergillimide 0 ppm); for Death rate (%): foliage application, 3 days after release.
Description: as §1

Test [4] has as its system Laodelphax striatellus. As to the kind of experiment: Laodelphax striatellus soil drenching application test (Test Example 1). Particulars: for Death rate (%): soil drenching, 3 days after release.
Description: Test solutions adjusted to a predetermined concentration (10% aqueous acetone solution) were applied to rice seedling in a pot by soil drenching. The rice seedling was allowed to stand for 3 days. Second instar larvae were released and was then allowed to stand in a humidistat chamber (light period 16 hr−dark period 8 hr) (25° C.).
Death rate (%)={number of dead larvae/(number of survived larvae+number of dead larvae)}×100
wherein A: 100−(death rate when application was performed only with 16-keto aspergillimide); and
The subject of test [5] is Haemaphysalis longicornis. As to the kind of experiment: Tickicidal effect against Haemaphysalis longicornis on body surface of mouse (Test Example 6). It is filed as in vivo. Particulars: other agent 6 μg/2 cm^2 alone (16-keto aspergillimide 0 μg/2 cm^2). The method, then: Skin hair on the back of mouse (ICR, male, 5 week olds) was clipped in a diameter of about 2 cm, and a 15-mL polystyrene conical tube cut to have a height of about 1.5 cm was bonded to the body surface of the mouse with an instant adhesive. Test solutions (20 μl) adjusted with ethanol were dropped on the body surface of mice within the bonded tube. After thorough drying, larvae (10 or more heads) were released within the tube, and the tube was lidded. […] The test was hexaplicated.
as §1

In test [6] the test system is Nilaparvata lugens which is sensitive to imidacloprid. Nature of the test: Foliage application test for Nilaparvata lugens, imidacloprid-sensitive strain (Test Example 4, comparison). It is filed as in vivo. The following applies: 6 days after release. The method, then:
(§2) Test solutions adjusted to a predetermined concentration (50% aqueous acetone solution) applied to rice seedlings in a pot for foliage application. […] The test was duplicated.
(§3) For comparison, a test was carried out in the same manner as described above, except that a Nilaparvata lugens strain which is highly sensitive to imidacloprid was used.
(§4) Regarding the origin of the test insect pests, Nilaparvata lugens which is low-sensitive to imidacloprid was an insect which had been collected outdoors in Kumamoto Prefecture, 2007, and Nilaparvata lugens which is sensitive to imidacloprid was an insect which had been collected in Kagoshima Prefecture and was then subjected to indoor successive raising.

Test [7] has as its system Nilaparvata lugens which is low-sensitive to imidacloprid. As to the kind of experiment: Foliage application test for Nilaparvata lugens, imidacloprid low-sensitive strain (Test Example 4). The class given is in vivo. The following applies: low-sensitive strain, 6 days after release. Here is the method:
as §2, §3, §4

[8] abbreviates: Haemaphysalis longicornis, 48 h, read-out: Death rate (%), Table 9, 2 days after release.
[9] abbreviates: other insecticide 0.002 mg/seedling alone (16-keto aspergillimide 0 mg/seedling).
[10] abbreviates: treatment concentration 1.25 ppm.
Setting [11] is: other insecticide 0.005 mg/seedling alone (16-keto aspergillimide 0 mg/seedling).

Like-named read-outs stand apart in the source and are kept apart here.

On to `C/C(=N\C#N)N(C)Cc1ccc(Cl)nc1` [Acetamiprid, acetamiprid], for which, in test [1] (setting [8]), the pest or weed control at 1.5 ppm is 24% and the pest or weed control at 3 ppm was found to be 55%.

For the molecule `C[C@H]1CCN2C[C@@]34C[C@]5(CC(=O)N(C)C5=O)C(C)(C)[C@@H]3C[C@]12C(=O)N4C` [Asperparaline A, reference compound], the “Death rate (%) for each amount of test chemical compound” value in the test on Laodelphax striatellus [2] was 0%.

In the case of `CN/C(=N\[N+](=O)[O-])NCc1cnc(Cl)s1` [Clothianidin, clothianidin], the pest or weed control at 5 ppm in test [1] (Haemaphysalis longicornis, 48 h, read-out: Death rate (%), Table 10, other agent 5 ppm alone (16-keto aspergillimide 0 ppm), 2 days after release) stood at 35%. The pest or weed control at 10 ppm in test [1] (Haemaphysalis longicornis, 48 h, read-out: Death rate (%), Table 10, other agent 10 ppm alone (16-keto aspergillimide 0 ppm), 2 days after release) was 62%. For the same molecule, in the test with Laodelphax striatellus [3], the “Theoretical value (%) calculated by the Colby's formula” value (from here on “Theoretical value (%) calculated”) is on record as 4% and the “Death rate (%)” value was determined as 4%.

Regarding `CN/C(=N/CC1CCOC1)N[N+](=O)[O-]` (centres unmarked) [Dinotefuran, dinotefuran], in test [1] (setting [8]), the pest or weed control at 30 ppm was 12%. Moreover, the pest or weed control at 50 ppm in test [1] (Haemaphysalis longicornis, 48 h, read-out: Death rate (%), Table 9, other agent 50 ppm alone (16-keto aspergillimide 0 ppm), 2 days after release) stood at 14%. Besides, the “Theoretical value (%) calculated” value with Laodelphax striatellus [4] was 4%. The “Death rate (%)” value with Laodelphax striatellus [4] (setting [9]) was found to be 4%.

For `N#Cc1nn(-c2c(Cl)cc(C(F)(F)F)cc2Cl)c(N)c1[S+]([O-])C(F)(F)F` (centres unmarked) [Fipronil, fipronil], the “Theoretical value (%) calculated” value with Laodelphax striatellus [4] is 5%; with Laodelphax striatellus [3], 21%. The “Death rate (%)” value in the test with Laodelphax striatellus [4] (setting [9]) amounted to 5%; with Laodelphax striatellus [3], 21%.

Regarding `O=[N+]([O-])NC1=NCCN1Cc1ccc(Cl)nc1` [Imidacloprid, imidacloprid, reference compound], the “Theoretical value (%) by Colby's formula” value in test [5] is on record as 22%. The “Death rate (%)” value is given as 22% in test [5] (mouse body surface, 3 days after release); 100% in test [6] (setting [10]); 100% in test [6] (treatment concentration 5 ppm); 100% in test [6] (treatment concentration 20 ppm); 5% with Laodelphax striatellus [4] (setting [11]); 5% with Laodelphax striatellus [3]. Moreover, the “Death rate (%)” value in test [7] (setting [10]) is 15%; in test [7] (treatment concentration 5 ppm), 55%; in test [7] (treatment concentration 20 ppm), 85%. The pest or weed control at 1.5 ppm in test [1] (setting [8]) is 26%. In addition, in test [1] (setting [8]), the pest or weed control at 3 ppm amounted to 33%. For the same molecule, the “Theoretical value (%) calculated” value in the test on Laodelphax striatellus [4] (setting [11]) and with Laodelphax striatellus [3] was 5% in each case.

As for `CCN(Cc1ccc(Cl)nc1)/C(=C/[N+](=O)[O-])NC` [Nitenpyram, nitenpyram], the pest or weed control at 40 ppm in test [1] (Haemaphysalis longicornis, 48 h, read-out: Death rate (%), Table 9, other agent 40 ppm alone (16-keto aspergillimide 0 ppm), 2 days after release) was found to be 12%.

Take `CC(c1ccc(C(F)(F)F)nc1)S(C)(=O)=NC#N` (centres unmarked) [Sulfoxaflor, sulfoxaflor]: the pest or weed control at 75 ppm in test [1] (Haemaphysalis longicornis, 48 h, read-out: Death rate (%), Table 10, other agent 75 ppm alone (16-keto aspergillimide 0 ppm), 2 days after release) came out at 48%. The pest or weed control at 150 ppm in test [1] (Haemaphysalis longicornis, 48 h, read-out: Death rate (%), Table 10, other agent 150 ppm alone (16-keto aspergillimide 0 ppm), 2 days after release) stood at 60%.

With `CN1COCN(Cc2cnc(Cl)s2)/C1=N\[N+](=O)[O-]` [Thiamethoxam, thiamethoxam], the pest or weed control at 30 ppm in test [1] (Haemaphysalis longicornis, 48 h, read-out: Death rate (%), Table 10, 2 days after release) is 21%. Besides, in test [1] (Haemaphysalis longicornis, 48 h, read-out: Death rate (%), Table 10, other agent 60 ppm alone (16-keto aspergillimide 0 ppm), 2 days after release), the pest or weed control at 60 ppm worked out at 26%.

With ivermectin, the “Death rate (%)” value in test [1] (other agent 200 ppm alone (16-keto aspergillimide 0 ppm), 2 days after release) came out at 0%; in test [1] (other agent 400 ppm alone (16-keto aspergillimide 0 ppm), 2 days after release), 0%. In addition, the “Theoretical value (%) by Colby's formula” value in test [1] (other agent 200 ppm alone (16-keto aspergillimide 0 ppm)) and in test [1] (other agent 400 ppm alone (16-keto aspergillimide 0 ppm)) was 0% each time.

(Values after patent publication US20110263520A1, “COMPOSITION FOR USE IN CONTROLLING HARMFUL ORGANISMS THAT CONTAINS 16-KETO ASPERGILLIMIDE” (priority 2008, published 2011).)
